Drawing on patent publication US9187491B2, “Gambogenic acid derivatives, preparation method and application thereof” (Ninth People's Hospital, School Medicine Shanghai Jiao Tong …, priority 2012, dated 2015), this text covers growth inhibition rate, efficacy and inhibition for 9 molecules.

Test [1] relates to Human breast cancer cells MCF-7. As to the kind of experiment: growth inhibition of tumor cell MCF-7 (MTT colorimetric method). Particulars: for growth inhibition rate / inhibition at 100 µM / inhibition at 10 µM / inhibition at 1 µM / inhibition at 0.1 µM / inhibition at 0.01 µM: 72 hours, MTT; for efficacy: MCF-7, assessment of results; for inhibition at 100 µM / inhibition at 10 µM / inhibition at 1 µM / inhibition at 0.1 µM / inhibition at 0.01 µM: Homo sapiens, MCF7, read-out: growth inhibition rate. It is filed as cell-based. The source says:
(§1) The compounds synthesized from the present invention were studied by sulforhodamine B protein staining (sulfothodalnine B, SRB) and miceroculture tetrazolinetetrozohuln (MTT) colorimetric method respectively for in vitro anti-tumor activity (Cancer Res., 1988, 48 (3): 589).
(§2) The concentration gradient of the test compounds of the present invention is 10^−4M, 10^−5M, 10^−6M, 10^−7M, 10^−8M, and the test compounds are 6-methoxy methyl ester gambogenic acid, ethyl ester gambogenic acid, 6-ethoxy ethyl ester gambogenic acid, 6-acyl gambogenic acid, piperidine gambogenic acid, diethylamide gambogenic acyl, morpholine gambogenic acid, and 12-hydroxy gambogenic acid, and 8,9-epoxy gambogenic acid. The test compounds and positive control gambogenic acid were diluted with dimethyl sulfoxide. Inhibition rate(%)=[(control group OD value−administered group OD value)/control group OD value]×100%
Human breast cancer cells MCF-7 were cultured in DMEM containing 10% FBS, the cell with long-growth phase was formed into suspension and cultured in 96-well plates. The test compounds as experimental group with different concentrations were added into each well of the 96-well plates. Blank control group received an equal volume containing the highest concentration of solvent (ie, 10^−4M dimethyl sulfoxide) in DMEM. After incubation at 37° C. under 5% carbon dioxide conditions for 72 hours, each well was added with MTT to 1 mg/ml final concentration for incubation for 4 hours. The supernatant solution in each well was aspirated and added with 200 μl DMSO to dissolve crystals, and then OD values were measured at 490 nm by an automatic plate reader spectrophotometer. A tumor cell group without drugs is a blank control group.
(Tetrazolium assays rely on reduction of a dye to a coloured formazan, in cell work by metabolically active cells.)

Test [2] deals with Human oral squamous cells carcinoma Cal27. As to the kind of experiment: growth inhibition of tumor cell Cal27 (SRB staining). Format: cell-based. Particulars: for growth inhibition rate / inhibition at 100 µM / inhibition at 10 µM / inhibition at 1 µM / inhibition at 0.1 µM / inhibition at 0.01 µM: 72 hours, SRB; for efficacy: Cal27, assessment of results; for inhibition at 100 µM / inhibition at 10 µM / inhibition at 1 µM / inhibition at 0.1 µM / inhibition at 0.01 µM: Homo sapiens, CAL-27, read-out: growth inhibition rate.
Excerpt: as §1, §2
Human oral squamous cells carcinoma Cal27 were cultured in DMEM containing 10% fetal bovine serum (FBS), the cells with long-growth phase were forming suspension and culturing in 96-well plates. 10 μl test compounds of different concentrations as experimental group were added into each well of the 96-well plates. Blank control group received an equal volume containing the highest concentration of solvent (ie, 10^−4M dimethyl sulfoxide) in DMEM. After incubation at 37° C. under 5% carbon dioxide conditions for 72 hours, the cells were fixed with trichloroacetic acid, and each well was added with 100 μl SRB solution, unbound SRB was washed away, and then OD values were measured at 550 nm by an automatic plate reader spectrophotometer. A tumor cell group without drugs is a blank control group.
In general terms: In SRB staining, fixed cells bind dye roughly in proportion to their protein.

6-acyl gambogenic acid: the growth inhibition rate in test [1] (MCF-7, 10^−4M) came out at 100%; in test [1] (MCF-7, 10^−5M), 100%; in test [1] (MCF-7, 10^−6M), 83%; in test [1] (MCF-7, 10^−7M), 0%; in test [1] (MCF-7, 10^−8M) it was 0%; in test [2] (Cal27, 10^−4M), 100%. Also, the growth inhibition rate is 100% in test [2] (Cal27, 10^−5M); 96% in test [2] (Cal27, 10^−6M); 0% in test [2] (Cal27, 10^−7M); 0% in test [2] (Cal27, 10^−8M). In addition, the efficacy result in test [1] and in test [2] was “potent (Potent: 10^−6M inhibition rate≧75% or 10^−7M inhibition rate>50%)” in each case.
`CCOC(=O)/C(C)=C\CC12OC(C)(C)C3CC(C=C4C(=O)c5c(OCC)c(C/C=C(\C)CCC=C(C)C)c(O)c(CC=C(C)C)c5OC431)C2=O` (stereo not drawn) [6-ethoxy ethyl ester gambogenic acid, 6-ethoxyl gambogenic acid ethyl ester]: the growth inhibition rate in test [1] (MCF-7, 10^−4M) amounted to 100%; in test [1] (MCF-7, 10^−5M), 100%; in test [1] (MCF-7, 10^−6M), 86%; in test [1] (MCF-7, 10^−7M), 0%; in test [1] (MCF-7, 10^−8M) it was 0%; in test [2] (Cal27, 10^−4M), 100%. Moreover, the growth inhibition rate is given as 100% in test [2] (Cal27, 10^−5M); 94% in test [2] (Cal27, 10^−6M); 0% in test [2] (Cal27, 10^−7M); 0% in test [2] (Cal27, 10^−8M). For the same molecule, the efficacy result in test [1] and in test [2] was “potent (Potent: 10^−6M inhibition rate≧75% or 10^−7M inhibition rate>50%)” each time.
Consider `COC(=O)/C(C)=C\CC12OC(C)(C)C3CC(C=C4C(=O)c5c(OC)c(C/C=C(\C)CCC=C(C)C)c(O)c(CC=C(C)C)c5OC431)C2=O` (stereo not drawn) [6-methoxy methyl ester gambogenic acid], for which the growth inhibition rate in test [1] (MCF-7, 10^−4M) is given as 100%; in test [1] (MCF-7, 10^−5M) it was 100%; in test [1] (MCF-7, 10^−6M), 80%; in test [1] (MCF-7, 10^−7M), 0%; in test [1] (MCF-7, 10^−8M) it was 0%; in test [2] (Cal27, 10^−4M), 100%. Moreover, the growth inhibition rate is listed as 100% in test [2] (Cal27, 10^−5M); 100% in test [2] (Cal27, 10^−6M); 0% in test [2] (Cal27, 10^−7M); 0% in test [2] (Cal27, 10^−8M). Also, the efficacy entry in test [1] and in test [2] was “potent (Potent: 10^−6M inhibition rate≧75% or 10^−7M inhibition rate>50%)” throughout.
Broadly, the inhibition is the change of the read-out against control, counted positive when it falls. `CC(C)=CCC/C(C)=C/Cc1c(O)c(CC=C(C)C)c2c(c1O)C(=O)C13OC1C1CC4C(C)(C)OC(C/C=C(\C)C(=O)O)(CC1=O)C43O2` (stereo not drawn) [8,9-epoxy gambogenic acid]: the inhibition at 100 µM in test [1] (MCF-7, 10^−4M) stood at 100%; in test [2] (Cal27, 10^−4M), 100%. In addition, the inhibition at 10 µM in test [1] (MCF-7, 10^−5M) was 100%; in test [2] (Cal27, 10^−5M), 100%. Moreover, the inhibition at 1 µM in test [1] (MCF-7, 10^−6M) is 80%; in test [2] (Cal27, 10^−6M), 100%. Also, the inhibition at 0.1 µM in test [1] (MCF-7, 10^−7M) amounted to 0%; in test [2] (Cal27, 10^−7M), 0%. Further, the inhibition at 0.01 µM in test [1] (MCF-7, 10^−8M) was determined as 0%; in test [2] (Cal27, 10^−8M), 0%. Moreover, the efficacy result in test [1] and in test [2] was “potent (Potent: 10^−6M inhibition rate≧75% or 10^−7M inhibition rate>50%)” in each case.
With `CC(C)=CCC/C(C)=C/Cc1c(O)c(CC=C(C)C)c2c(c1O)C(=O)C1=CC3CC4C(C)(C)OC(C/C=C(\C)C(=O)O)(CC3O)C14O2` (stereo not drawn) [12-hydroxy gambogenic acid], the inhibition at 100 µM turned out to be 100% in test [1] (MCF-7, 10^−4M) and 100% in test [2] (Cal27, 10^−4M). Moreover, the inhibition at 10 µM in test [1] (MCF-7, 10^−5M) is 100%; in test [2] (Cal27, 10^−5M), 100%. Moreover, the inhibition at 1 µM in test [1] (MCF-7, 10^−6M) was 82%; in test [2] (Cal27, 10^−6M) it was 100%. The inhibition at 0.1 µM came out at 0% in test [1] (MCF-7, 10^−7M) and 0% in test [2] (Cal27, 10^−7M). In addition, the inhibition at 0.01 µM in test [1] (MCF-7, 10^−8M) was 0%; in test [2] (Cal27, 10^−8M), 0%. Moreover, the efficacy result in test [1] and in test [2] was “potent (Potent: 10^−6M inhibition rate≧75% or 10^−7M inhibition rate>50%)” each time.
Turning to `CCN(CC)C(=O)/C(C)=C\CC12OC(C)(C)C3CC(C=C4C(=O)c5c(O)c(C/C=C(\C)CCC=C(C)C)c(O)c(CC=C(C)C)c5OC431)C2=O` (stereo not drawn) [diethylamide gambogenic acyl], the growth inhibition rate is 100% in test [1] (MCF-7, 10^−4M); 100% in test [1] (MCF-7, 10^−5M); 84% in test [1] (MCF-7, 10^−6M); 0% in test [1] (MCF-7, 10^−7M); 0% in test [1] (MCF-7, 10^−8M); 100% in test [2] (Cal27, 10^−4M). Besides, the growth inhibition rate is 100% in test [2] (Cal27, 10^−5M); 100% in test [2] (Cal27, 10^−6M); 23% in test [2] (Cal27, 10^−7M); 0% in test [2] (Cal27, 10^−8M). Moreover, the efficacy result in test [1] and in test [2] was “potent (Potent: 10^−6M inhibition rate≧75% or 10^−7M inhibition rate>50%)” in each case.
Consider `CCOC(=O)/C(C)=C\CC12OC(C)(C)C3CC(C=C4C(=O)c5c(O)c(C/C=C(\C)CCC=C(C)C)c(O)c(CC=C(C)C)c5OC431)C2=O` (stereo not drawn) [ethyl ester gambogenic acid], for which the growth inhibition rate is listed as 100% in test [1] (MCF-7, 10^−4M); 100% in test [1] (MCF-7, 10^−5M); 96% in test [1] (MCF-7, 10^−6M); 0% in test [1] (MCF-7, 10^−7M); 0% in test [1] (MCF-7, 10^−8M); 100% in test [2] (Cal27, 10^−4M). In addition, the growth inhibition rate is given as 100% in test [2] (Cal27, 10^−5M); 98% in test [2] (Cal27, 10^−6M); 0% in test [2] (Cal27, 10^−7M); 0% in test [2] (Cal27, 10^−8M). For the same molecule, the efficacy entry in test [1] and in test [2] was “potent (Potent: 10^−6M inhibition rate≧75% or 10^−7M inhibition rate>50%)” throughout.
`CC(C)=CCC/C(C)=C/Cc1c(O)c(CC=C(C)C)c2c(c1O)C(=O)C1=CC3CC4C(C)(C)OC(C/C=C(/C)C(=O)N5CCOCC5)(C3=O)C14O2` (stereo not drawn) [morpholine gambogenic acid]: the growth inhibition rate in test [1] (MCF-7, 10^−4M) is given as 100%; in test [1] (MCF-7, 10^−5M) it was 100%; in test [1] (MCF-7, 10^−6M), 78%; in test [1] (MCF-7, 10^−7M), 14%; in test [1] (MCF-7, 10^−8M) it was 0%; in test [2] (Cal27, 10^−4M), 100%. In addition, the growth inhibition rate in test [2] (Cal27, 10^−5M) is given as 100%; in test [2] (Cal27, 10^−6M) it was 100%; in test [2] (Cal27, 10^−7M), 14%; in test [2] (Cal27, 10^−8M), 0%. The efficacy result in test [1] and in test [2] was “potent (Potent: 10^−6M inhibition rate≧75% or 10^−7M inhibition rate>50%)” in each case.
Regarding `CC(C)=CCC/C(C)=C/Cc1c(O)c(CC=C(C)C)c2c(c1O)C(=O)C1=CC3CC4C(C)(C)OC(C/C=C(/C)C(=O)N5CCCCC5)(C3=O)C14O2` (stereo not drawn) [piperidine gambogenic acid], the growth inhibition rate turned out to be 100% in test [1] (MCF-7, 10^−4M); 100% in test [1] (MCF-7, 10^−5M); 67% in test [1] (MCF-7, 10^−6M); 0% in test [1] (MCF-7, 10^−7M); 0% in test [1] (MCF-7, 10^−8M); 100% in test [2] (Cal27, 10^−4M). Besides, the growth inhibition rate in test [2] (Cal27, 10^−5M) is 100%; in test [2] (Cal27, 10^−6M), 70%; in test [2] (Cal27, 10^−7M), 0%; in test [2] (Cal27, 10^−8M), 0%. The efficacy entry in test [1] and in test [2] was “invalid (Invalid: 10^−5M inhibition rate<85%)” throughout.
